Measurements reported in patent US11834679B2, “Method for producing cardiomyocytes” (KATAOKA CORPORATION, priority 2018, dated 2023).

Test system: human fibroblasts
Test: Direct induction from human fibroblasts to cardiomyocytes (microscopic observation of morphology and pulsation)
Format: cell-based
Procedure: The human fibroblasts used as the material were purchased from DS Pharma Biomedical Co., Ltd. The fibroblasts are derived from human skin. The human fibroblasts were seeded in 8×10^4 portions in 35-mm dishes coated with gelatin (Cat #: 190-15805, manufactured by Wako Pure Chemical Co.) and cultured in DMEM high glucose medium (manufactured by Gibco) supplemented with 10% fetal bovine serum (Fetal bovine serum; FBS), 100 U/mL penicillin, and 100 μg/mL streptomycin for 2 days at 37° C. under 5% CO2 conditions (80-90% or more confluent). DMEM denotes Dulbecco's Modified Eagle Medium (Dulbecco's Modified Eagle Medium). The medium of dishes of the human fibroblasts described above was replaced with a medium of DMEM (High Glucose with L-Glutamine Phenol Red, and Sodium Pyruvate) (manufactured by Gibco) having 20% fetal bovine serum (FBS), 2% B27-supplement (manufactured by Gibco), 1% N2 (manufactured by Gibco), non-essential amino acids (NEAA: manufactured by Gibco), β-mercaptoethanol (manufactured by Nacalai Tesque; final concentration of 0.1 mmol/L), 2-phospho ascorbic acid (manufactured by Sigma-Aldrich; final concentration of 50 μg/mL), 100 U/mL penicillin, 100 μg/mL streptomycin, and low molecular weight compounds described below. […] This was assessed by observing cell clumps that contract spontaneously and periodically under a microscope. […]

O=C(NOC[C@H](O)CO)c1ccc(F)c(F)c1Nc1ccc(I)cc1F [Ex. A, PD0325901]
appearance of spontaneously contracting (myocardial) cell clumps (Tables 1-2, FIGS. 1-6, culture day 7 to 17): low in frequency | Induction efficiency (Morphology, pulsation) (human skin fibroblasts cultured with the compound combination, grades ⊚, ◯, Δ, X not defined): Δ
